Series [1] relates to Rat Insulinoma cell lines (RIN-5F). Nature of the series: β-cell assay for protection against gluco-lipo toxicity (diabetes model). It is filed as cell-based. Particulars: RIN-5F cells treated with glucose and Palmitate-BSA complex, 18 hrs, neutral red; change with respect to Control 2 (glucose and Palmitate only); wt % of ingredients as per example.
Experimental: This RPMI 1640 medium contains 2 g/L of glucose supplemented with 25 mM HEPES (4-(2-hydroxyethyl)-1-piperazineethanesulfonic acid, SRL Cat No: 084023C).
After that a complete medium was prepared by adding 100 μL of 100 mM Sodium pyruvate (Sigma, Cat No: P5280) and 10% (vv) in 100 mL of RPMI 1640.
100 μL/well of complete medium with the added Rat Insulinoma cell (RIN-5F, ATCC (USA)) was plated in a 96 well flat bottom plate (NEST Biotechnology Co. Ltd, Cat No 701001) so that the cell concentration is maintained at a level of 3.5×10^4 cells/well. This plate was then introduced in an incubator (Thermo Scientific, Model 3111; conditions: 5% CO2, at 37° C.) for 24 hours.
2.267 g of ultra Fatty Acid Free BSA (Roche applied sciences, Cat No: 03117405001) was added to 100 mL of 150 mM NaCl and stirred constantly at a maintained temperature of ˜37° C. […] After that this solution was filtered with a syringe filter of pore size of 0.22 μm (Millipore®, Cat no: SLGPO33RS). • 3. […]
After 4 hrs the neutral red medium was removed by aspiration using a micropipette and cells were washed with 100 μL/well of PBS solution (same as prepared above) to remove the excess stain. […] The colorimetric reading (absorbance) of the bound stain was read at a wavelength of 540 nm in a microwell plate reader (BIO-RAD LAB INDIA, Model No. 680). The efficacy of the test ingredients were evaluated with respect to the Control 2.
Series [2] shares this test system. Particulars: 24 h.
Experimental: Before starting the experiment it was needed to determine the cytotoxic dose for the Inula racemosa extract and theobromine. The cytotoxicity of both materials was determined as follows by Neutral red assay:
The Rat Insulinoma cell lines (RIN-5F, ATCC (USA)) was plated at a density of 3.5×10^4 cells/well (Volume 100 μL) in a 96 well plate (NEST Biotechnology Co. Ltd, Cat No 701001) and placed it in an incubator (Thermo Scientific, Model 3111; conditions: 5% CO2, at 37° C.) for 24 hours. After the incubation 10 μL of Inula racemosa water extract (at different concentration e.g. 10%, 1%, 0.1%, 0.01%, 0.001%, 0.0001% and 0.00001%) and 10 μL of theobromine solution (at different concentration e.g. 10%, 1%, 0.1%, 0.01%, 0.001%, 0.0001% and 0.00001%) were added to the culture and incubated for 24 hours in the same incubator. As a control in some wells there was no addition of either Inula racemosa or theobromine (only medium and cells). […]
The bound stain was extracted out from the cells by adding 150 μL of desorption solution and dissolved the dye completely. […] The absorbance of the stain extracted out from the cells was measured at 540 nm in a microwell plate reader (BIO-RAD LAB INDIA, Model No. 680).
The percentage of live cells was calculated using the below mentioned formula: […]

Data on two compounds can be found in patent publication US9393276B2, “Edible composition” (Conopco,Inc., priority 2012, dated 2016).

Take `Cn1cnc2c1c(=O)[nH]c(=O)n2C` [E, Theobromine]: in series [1], the “% change in cell viability” value is reported as 5 ± 2%.

`Cn1cnc2c1c(=O)[nH]c(=O)n2C` [theobromine, 3,7-dimethylxanthine] showed a non-cytotoxic concentration in series [2] of no more than 0.001%.
